From PMC10709440, “High-throughput ligand profile characterization in novel cell lines expressing seven heterologous insect olfactory receptors for the detection of volatile plant biomarkers” (Scientific Reports, 2023)
Several values for one entry are separate records, joined by “and”; a condition that tells them apart may be missing. Equal entries are not always repeated. Where two headings read alike, the source gives them in different places.

Experiments:
Drosophila OR10a = target: T1, Drosophila OR10a (Drosophila melanogaster, UniProt Q9VYZ1); assay: Calcium ion fluorescence (GCaMP6) assay, OR10a stable HEK293 cell line; format: cell-based; conditions: for DF norm AVERAGE OR10a: threshold 0.05, below shown as 0
T1 construct: expressed in transfected cells
T1 sequence (Q9VYZ1 1-406): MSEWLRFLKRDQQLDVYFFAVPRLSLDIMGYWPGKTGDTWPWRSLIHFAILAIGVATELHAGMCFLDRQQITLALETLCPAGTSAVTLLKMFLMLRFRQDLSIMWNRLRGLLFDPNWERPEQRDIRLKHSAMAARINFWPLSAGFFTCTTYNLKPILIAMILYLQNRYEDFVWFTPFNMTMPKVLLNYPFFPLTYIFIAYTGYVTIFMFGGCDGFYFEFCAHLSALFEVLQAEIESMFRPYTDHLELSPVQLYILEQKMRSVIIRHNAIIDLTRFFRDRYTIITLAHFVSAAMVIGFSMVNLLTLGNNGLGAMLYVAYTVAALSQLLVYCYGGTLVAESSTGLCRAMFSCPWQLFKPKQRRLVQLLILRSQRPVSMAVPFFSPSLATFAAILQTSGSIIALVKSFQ
T1 sequence (Q9VNB5 1-486 partner): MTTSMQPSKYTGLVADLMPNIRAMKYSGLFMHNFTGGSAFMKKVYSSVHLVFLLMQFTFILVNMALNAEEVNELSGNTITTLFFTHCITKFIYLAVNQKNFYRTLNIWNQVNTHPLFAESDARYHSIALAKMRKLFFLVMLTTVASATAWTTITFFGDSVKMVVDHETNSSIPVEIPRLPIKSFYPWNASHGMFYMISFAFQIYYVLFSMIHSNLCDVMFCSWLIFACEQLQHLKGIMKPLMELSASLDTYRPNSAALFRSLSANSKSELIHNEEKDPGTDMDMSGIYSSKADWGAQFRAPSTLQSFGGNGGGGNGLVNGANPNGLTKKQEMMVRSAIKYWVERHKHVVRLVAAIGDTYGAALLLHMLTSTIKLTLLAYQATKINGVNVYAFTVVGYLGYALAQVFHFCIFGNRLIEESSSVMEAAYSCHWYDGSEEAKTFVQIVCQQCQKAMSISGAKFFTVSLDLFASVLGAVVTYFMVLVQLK
Summary of the method: (§1)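 HEK293 lines stably expressing each Drosophila OR with GCaMP6, doxycycline-induced (1 μg/mL) 48 or 72 h. Fluorescence recorded 5 s baseline then 30 s after VOC injection at pH 7.3; ΔF=(FMAX−F0)/F0, normalized to 50 µM VUAA1 response per line, triplicate wells averaged; concentration series 0.01–100 μM.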

Drosophila OR47a = target: T2, Drosophila OR47a (Drosophila melanogaster, UniProt P81921); assay: Calcium ion fluorescence (GCaMP6) assay, OR47a stable HEK293 cell line; format: cell-based; conditions: for response intensity: of VUAA1 response; for Average response: mean of biological replicates; for DF norm AVERAGE OR47a: threshold 0.05, below shown as 0
T2 construct: expressed in transfected cells
T2 sequence (P81921 1-385): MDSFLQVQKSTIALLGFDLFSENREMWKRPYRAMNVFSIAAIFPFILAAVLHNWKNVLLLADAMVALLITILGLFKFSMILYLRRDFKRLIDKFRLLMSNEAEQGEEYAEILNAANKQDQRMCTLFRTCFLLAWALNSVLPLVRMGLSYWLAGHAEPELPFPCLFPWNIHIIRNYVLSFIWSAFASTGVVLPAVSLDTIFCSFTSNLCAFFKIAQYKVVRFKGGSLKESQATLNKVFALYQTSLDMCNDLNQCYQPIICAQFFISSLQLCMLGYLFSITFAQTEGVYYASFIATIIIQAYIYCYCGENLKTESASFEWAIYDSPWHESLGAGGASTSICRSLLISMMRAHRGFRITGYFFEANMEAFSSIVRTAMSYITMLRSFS
T2 sequence (Q9VNB5 1-486 partner): T1 sequence (Q9VNB5 1-486 partner)
Summary of the method: as §1

[1] = HEK293, 1 μM VOC, 50 μM VUAA1 = 1, responses not exceeding 0.05 considered 0, read-out: OR10a Average response (VUAA1-normalized)
[2] = HEK293, 10 μM VOC, 50 μM VUAA1 = 1, responses not exceeding 0.05 considered 0, read-out: OR10a Average response (VUAA1-normalized)
[3] = HEK293, 100 μM VOC, 50 μM VUAA1 = 1, responses not exceeding 0.05 considered 0, read-out: OR10a Average response (VUAA1-normalized)
[4] = ligand concentration 1 (unit not given)
[5] = ligand concentration 10 (unit not given)
[6] = ligand concentration 100 (unit not given)
[7] = HEK293, read-out: OR47a Average response (VUAA1-normalized)
[8] = HEK293, read-out: OR47a response (VUAA1-normalized response)
[9] = OR47a cell line, odorant cc. 1 µM
[10] = OR47a cell line, odorant cc. 10 µM
[11] = OR47a cell line, odorant cc. 100 µM

Compound: CC(=O)OCCC(C)C [isopentyl acetate]
- activation at 1 µM (Drosophila OR10a; [1]): 9%
- activation at 10 µM (Drosophila OR10a; [2]): 19%
- activation at 100 µM (Drosophila OR10a; [3]): 10%
- activation at 1 µM (Drosophila OR10a; HEK293, read-out: OR10a response (VUAA1-normalized response), VOC concentration 1 μM): 9%
- activation at 10 µM (Drosophila OR10a; HEK293, read-out: OR10a response (VUAA1-normalized response), VOC concentration 10 μM): 19%
- activation at 100 µM (Drosophila OR10a; HEK293, read-out: OR10a response (VUAA1-normalized response), VOC concentration 100 μM): 10%
- DF norm AVERAGE OR10a (Drosophila OR10a; [4]): 0.08825
- DF norm AVERAGE OR10a (Drosophila OR10a; [5]): 0.1921
- DF norm AVERAGE OR10a (Drosophila OR10a; [6]): 0.101
- activation at 1 µM (Drosophila OR47a; [7]): 0%
- activation at 10 µM (Drosophila OR47a; [7]): 12%
- activation at 100 µM (Drosophila OR47a; [7]): 18%
- activation at 1 µM (Drosophila OR47a; [8]): 0%
- activation at 10 µM (Drosophila OR47a; [8]): 12%
- activation at 100 µM (Drosophila OR47a; [8]): 18%
- response intensity (Drosophila OR47a; OR47a cell line, 10 μM): 12%
- response intensity (Drosophila OR47a; OR47a cell line, 100 μM): 18%
- Average response (Drosophila OR47a; [9]): 0.00
- Average response (Drosophila OR47a; [10]): 0.12
- Average response (Drosophila OR47a; [11]): 0.18
- DF norm AVERAGE OR47a (Drosophila OR47a; [4]): 0
- DF norm AVERAGE OR47a (Drosophila OR47a; [5]): 0.1209
- DF norm AVERAGE OR47a (Drosophila OR47a; [6]): 0.1752

Compound: CCCCCOC(C)=O [pentyl acetate]
- activation at 1 µM (Drosophila OR10a; [1]): 11%
- activation at 10 µM (Drosophila OR10a; [2]): 8%
- activation at 100 µM (Drosophila OR10a; [3]): 30%
- OR10a response (VUAA1-normalized) at 1 μM (Drosophila OR10a; OR10a cell line, VOC concentration 1 μM): 0.11
- OR10a response (VUAA1-normalized) at 10 μM (Drosophila OR10a; OR10a cell line, VOC concentration 10 μM): 0.08
- OR10a response (VUAA1-normalized) at 100 μM (Drosophila OR10a; OR10a cell line, VOC concentration 100 μM): 0.30
- DF norm AVERAGE OR10a (Drosophila OR10a; [4]): 0.109
- DF norm AVERAGE OR10a (Drosophila OR10a; [5]): 0.07718
- DF norm AVERAGE OR10a (Drosophila OR10a; [6]): 0.3011
- EC50 (Drosophila OR47a; AVERAGE EC50, the 14th table, corresponds to average LOG EC50, given with 95% confidence interval): 2220 nM
- EC50 (Drosophila OR47a; EC50, AVERAGE of replicate fits, the 14th table, arithmetic average, N 5): 2410 nM
- EC50 (Drosophila OR47a; EC50, OR47a cell line, fitted Hill equation, Hill coefficient constrained to 1, maximal response max 1): 2220 nM
- EC50 (Drosophila OR47a; EC50, fitted average curve, the 14th table, fit to the average curve, n 0.854956): 2560 nM
- EC50 (Drosophila OR47a; EC50, fitted parameter per biological replicate, the 14th table, individual replicate fits): 1810 nM and 2840 nM and 3360 nM and 2980 nM and 1050 nM
- activation at 1 µM (Drosophila OR47a; [7]): 41%
- activation at 10 µM (Drosophila OR47a; [7]): 85%
- activation at 100 µM (Drosophila OR47a; [7]): 76%
- Emax (Drosophila OR47a; HEK293, read-out: VUAA1 normalized MAX response): 96%
- EC50 (Drosophila OR47a; LOG EC50, AVERAGE of replicate fits, the 14th table, N 5): 2220 nM
- EC50 (Drosophila OR47a; LOG EC50, fitted parameter per biological replicate, the 14th table, OR47a D-R pentyl acetate, individual replicate fits, MIN 0, n 1): 1810 nM and 2840 nM and 3360 nM and 2980 nM and 1050 nM
- OR47a response (VUAA1-normalized) at 1 μM (Drosophila OR47a; OR47a cell line, VOC concentration 1 μM): 0.41
- OR47a response (VUAA1-normalized) at 10 μM (Drosophila OR47a; OR47a cell line, VOC concentration 10 μM): 0.85
- OR47a response (VUAA1-normalized) at 100 μM (Drosophila OR47a; OR47a cell line, VOC concentration 100 μM): 0.76
- Average response (Drosophila OR47a; [9]): 0.41
- Average response (Drosophila OR47a; [10]): 0.85
- Average response (Drosophila OR47a; [11]): 0.76
- DF norm AVERAGE OR47a (Drosophila OR47a; [4]): 0.4101
- DF norm AVERAGE OR47a (Drosophila OR47a; [5]): 0.8532
- DF norm AVERAGE OR47a (Drosophila OR47a; [6]): 0.7595
- dose-response, response per biological replicate (Drosophila OR47a; the 14th table, VOC concentration 0.15): 0 (2×) and 0.08996
- dose-response, AVERAGE response (Drosophila OR47a; the 14th table, VOC concentration 0.15, N 3): 0.02999
- dose-response, response per biological replicate (Drosophila OR47a; the 14th table, VOC concentration 0.3): 0 (2×) and 0.06871 and 0.1596
- dose-response, AVERAGE response (Drosophila OR47a; the 14th table, VOC concentration 0.3, N 4): 0.05709
- dose-response, response per biological replicate (Drosophila OR47a; the 14th table, VOC concentration 0.6): 0.1609 and 0.1169 and 0.06805 and 0.08558 and 0.2252
- dose-response, AVERAGE response (Drosophila OR47a; the 14th table, VOC concentration 0.6, N 5): 0.1313
- dose-response, response per biological replicate (Drosophila OR47a; the 14th table, VOC concentration 1.25): 0.1915 and 0.1656 and 0.1715 and 0.5641
- dose-response, AVERAGE response (Drosophila OR47a; the 14th table, VOC concentration 1.25, N 4): 0.2732
- dose-response, response per biological replicate (Drosophila OR47a; the 14th table, VOC concentration 2.5): 0.3991 and 0.4483 and 0.3729 and 0.3818 and 0.7224
- dose-response, AVERAGE response (Drosophila OR47a; the 14th table, VOC concentration 2.5, N 5): 0.4649
- dose-response, response per biological replicate (Drosophila OR47a; the 14th table, VOC concentration 5): 0.9001 and 0.6438 and 0.6113 and 0.6294 and 0.9303
- dose-response, AVERAGE response (Drosophila OR47a; the 14th table, VOC concentration 5, N 5): 0.743
- dose-response, response per biological replicate (Drosophila OR47a; the 14th table, VOC concentration 10): 0.8372 and 0.7794 and 0.895 and 0.7979 and 1.027
- dose-response, AVERAGE response (Drosophila OR47a; the 14th table, VOC concentration 10, N 5): 0.8674
- dose-response, response per biological replicate (Drosophila OR47a; the 14th table, VOC concentration 20): 1.202 and 0.8226 and 0.9992 and 0.8736 and 1.052
- dose-response, AVERAGE response (Drosophila OR47a; the 14th table, VOC concentration 20, N 5): 0.99
- dose-response, response per biological replicate (Drosophila OR47a; the 14th table, VOC concentration 40): 1.114 and 0.9003 and 0.922 and 0.9538 and 0.9871
- dose-response, AVERAGE response (Drosophila OR47a; the 14th table, VOC concentration 40, N 5): 0.9754
- dose-response, response per biological replicate (Drosophila OR47a; the 14th table, VOC concentration 60): 1.02 and 0.8294 and 1.116 and 0.8263 and 0.955
- dose-response, AVERAGE response (Drosophila OR47a; the 14th table, VOC concentration 60, N 5): 0.9493
- dose-response, response per biological replicate (Drosophila OR47a; the 14th table, VOC concentration 80): 0.8413 and 0.8664 and 0.788 and 0.8411
- dose-response, AVERAGE response (Drosophila OR47a; the 14th table, VOC concentration 80, N 4): 0.8342
- dose-response, response per biological replicate (Drosophila OR47a; the 14th table, VOC concentration 100): 0.8402 and 0.9595 and 0.7641 and 0.7857
- dose-response, AVERAGE response (Drosophila OR47a; the 14th table, VOC concentration 100, N 4): 0.8374
- AVERAGE MAX (Drosophila OR47a; the 14th table, average of replicate fits, N 5): 0.9609
- MAX, fitted average curve (Drosophila OR47a; the 14th table, fit to the average curve, n 0.854956): 1
- MAX, fitted parameter per biological replicate (Drosophila OR47a; the 14th table, individual replicate fits): 1 (2×) and 0.9126 and 0.907 and 0.9849
